Assays:
Female Wistar rats [1] = assay: Basal sensitivity to colorectal distension model; format: in vivo, rat; conditions: 3 mg/kg or 10 mg/kg subcutaneously; CRD measured 3 hrs 15 minutes later
Female Wistar rats [2] = assay: Partial restraint stress-induced hyperalgesia model; format: in vivo, rat; conditions: 3 mg/kg or 10 mg/kg SC one hour prior to 2 h PRS, CRD 15 minutes after PRS
Procedure: Female Wistar rats surgically prepared for electromyography as described in Example 1 were used to evaluate the effects of the FAAH inhibitors (a) compound A or (b) compound B, on colorectal sensitivity and compliance after a 2 hour partial restraint stress session.
Partial restraint stress (PRS), a relatively mild stress, was induced as previously described (Morteau et al. Dig. Dis. Sci. 1994: 39:1239-48; “Guanylate cyclase C-mediated antinociceptive effects of linaclotide in rodent models of visceral pain”, Eutamene H, Bradesi S, Larauche M, Theodorou V, Beaufrand C, Ohning G, Fioramonti J, Cohen M, Bryant A P, Kurtz C, Currie M G, Mayer E A, Bueno L, Neurogastroenterology and motility —2010 Volume: 22 p. 312-322; “Stress-induced changes in intestinal transit in the rat: a model for irritable bowel syndrome”, Williams C L, Villar R G, Peterson J M, Burks T F, Gastroenterology—1988 p. 611-21). Female rats were lightly anesthetized with diethyl ether and their shoulders, upper forelimbs and thoracic trunk were wrapped in a confining harness of paper tape to restrict, but not prevent body movements. Control sham-stress animals were anesthetized but not wrapped. […]
Rats were treated orally with compound A (30 mg/kg in DMSO/cremophor/isotonic saline (1:1:8 v:v:v), n=8), or vehicle only (DMSO/cremophor/isotonic saline (1:1:8 v:v:v), 1 mL, n=9) with or without 2 hour PRS sessions. The number of abdominal contractions was recorded by electromyography per 5-minute period (y axis) for each distension pressure of 0 mmHg, 15 mmHg, 30 mmHg, 45 mmHg and 60 mmHg (x axis); the ? symbols represent the results for the control+vehicle group (n=9); the symbols ? represent the results for the stress+vehicle group (n=9); the symbols ? represent the results for the stress+compound A group (n=8). Data are mean values with SEM.
Rats were treated orally with compound B (30 mg/kg in DMSO/cremophor/isotonic saline (1:1:8 v:v:v), n=9), or vehicle only (DMSO/cremophor/isotonic saline (1:1:8 v:v:v), 1 mL, n=9) with or without 2 hour PRS sessions. The number of abdominal contractions was recorded by electromyography per 5-minute period (y axis) for each distension pressure of 0 mmHg, 15 mmHg, 30 mmHg, 45 mmHg and 60 mmHg (x axis); the symbols ? represent the results for the control+vehicle group (n=9); the symbols ? represent the results for the stress+vehicle group (n=9); and the symbols ? represent the results for the stress+compound B group (n=9). Data are mean values with SEM.
The effect of FAAH inhibitor URB597 was tested at 3 mg/kg and 10 mg/kg in the PRS model of visceral hyperalgesia essentially as described in Examples 1 and 2. URB597 was formulated as a suspension in vehicle [DMSO/cremophor/isotonic saline (1:1:8 v:v:v)]. […]

In the case of `NC(=O)c1cccc(-c2cccc(OC(=O)NC3CCCCC3)c2)c1` [URB597, 3′-(aminocarbonyl) biphenyl-3-yl cyclohexyl carbamate, reference compound], the “basal sensitivity to colorectal distension (number of abdominal contractions)” value (Female Wistar rats [1]) is reported as “does not alter basal sensitivity”, the “number of abdominal contractions (antihyperalgesic effect) in PRS model” value (Female Wistar rats [2]) is reported as “did not exhibit an antihyperalgesic effects” and the “number of abdominal contractions (antihyperalgesic effect) in PRS model” value (Female Wistar rats [2]; listed as URB-597) is reported as “no differences in number of abdominal contractions were observed”.

— patent US20130224151A1, “Use of FAAH Inhibitors for Treating Abdominal, Visceral and Pelvic Pain” (UNITED STATES OF AMERICA, priority 2010, published 2013)
